{"source": "patent US12590093B2", "about": "“Indolo[2′,3′:3,4]pyrido[2,1-b]quinazoline compound and use thereof” (INSTITUTE OF MEDICINAL BIOTECHNOLOGY CHINESE ACADEMY OF …, priority 2019, dated 2026)", "key": {"ABCA1 [1]": {"tested_on": "ABCA1", "assay": "ABCA1 expression in RAW 264.7 cells by western-blot, with or without si-AMPK", "type": "cell-based, Murine", "procedure": "(§1) Murine macrophages RAW 264.7 cells were subcultured about every 48 h. When the cells were approximately 100% confluent, the old culture medium was removed, and the cells were washed with PBS and digested with trypsin at an appropriate amount for about 2 min at RT. After the digestion solution was removed, the RPMI-1640 complete medium containing 10% FBS was added immediately to inhibit the activity of trypsin. The cells in the culture flask were repeatedly and gently blown with a curved straw, so that they were completely detached from the bottom of the flask and dispersed into the single-cell suspension. The cells were seeded into a new cell flask at a density of 1:4-1:6, and added with an appropriate amount of the complete medium. The flask was placed in an incubator and cultured at 37° C., 5% CO2. RAW264.7 cells were pretreated with si-AMPK (AMPK siRNA) for 24 h, and then treated with compound TR3 (1 μM) for 24 h. The expression of ABCA1 and AMPK was detected by western-blot.\n(§2) The effect of TR3 on AMPK was detected by western-blot."}, "PPARγ": {"target": "T1, PPARγ (Homo sapiens, UniProt P37231)", "T1 construct": "expressed in transfected cells; host or cells: HepG2", "T1 sequence (P37231 238-503 limits assumed)": "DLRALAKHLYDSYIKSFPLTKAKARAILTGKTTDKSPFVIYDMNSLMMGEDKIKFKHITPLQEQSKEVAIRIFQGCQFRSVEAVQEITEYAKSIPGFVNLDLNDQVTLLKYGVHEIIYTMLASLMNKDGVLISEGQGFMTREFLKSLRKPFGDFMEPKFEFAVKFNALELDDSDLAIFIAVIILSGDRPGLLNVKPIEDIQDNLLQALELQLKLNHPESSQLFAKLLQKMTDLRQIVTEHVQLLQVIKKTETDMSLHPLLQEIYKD", "assay": "Nuclear receptor reporter gene transient transfection (pBIND-hPPARs-LBD) in HepG2 cells, PPARγ", "type": "cell-based", "conditions": "FIG. 2, result in words", "procedure": "HepG2 cells in logarithmic growth phase were digested, seeded into the white/clear 96-well plate at a density of 5×10^4 cells/well/100 μL until the cells grew to about 90% confluence and in good condition. 0.5 μL liposome (Lipofectamine® 2000) diluted with blank medium to 25 μL per well and incubated at room temperature for 5 min. The corresponding plasmids DNA (nuclear receptor plasmid:Gal4=1:10) were diluted in blank DMEM medium to 25 μL/well (mixing of two plasmids), then mixed evenly with the diluted liposome, and incubated for 20 min at 37° C. The DNA-liposome complex (50 μL per well) was added with the DMEM complete medium (100 μL per well) and mixed thoroughly to obtain a DNA-liposome complex cell culture. The cell medium was discarded, and replaced with the DNA-liposome complex cell culture (150 μL/well) (37° C., 5% CO2). After 6 h, the DNA-liposome complex cell culture medium was discarded, and 200 μL serum-free DMEM medium containing the compound at an appropriate concentration was added to each test well, and cultured for 18-24 h. The cell Luciferase activity was measured by the method as described in the Luciferase Assay System."}, "NLRP3 inflammasome": {"tested_on": "NLRP3 inflammasome", "assay": "NLRP3 inflammasome in J774A.1 cells with MAPK agonist Anisomycin", "type": "cell-based", "conditions": "MAPK signaling pathway agonist Anisomycin added, FIG. 9", "source_text": "(§3) When animal tissues were used to prepare protein samples, the tissues were firstly homogenized and lysed in the RIPA lysis buffer. The subsequent steps were the same as those for preparing protein samples from cells. When cell supernatants were used to prepare protein samples, the supernatants were freeze-dried, needed to be extracted using a protein recovery kit (Applygen, Beijing, China), and then analyzed by western-blot.\nAfter that, the MAPK signaling pathway agonist Anisomycin and TR3 were added into J774A-1 cells."}, "ABCA1 [2]": {"tested_on": "ABCA1", "assay": "ABCA1 protein expression in liver of ApoE−/− mice", "type": "in vivo", "conditions": "FIG. 10", "procedure": "6-week-old male C57/BL6 ApoE^−/− mice were fed on normal chaw diet for one week. The mice were randomly divided into three groups (control group, high-fat diet model group, and treatment group, 12 mice per group) according to the body weight. From 7-week-old, the high-fat diet model group and the treatment group were fed on a high fat diet (HFD) (0.15% cholesterol and 20% fat), and the control group was fed on normal chow diet. The treatment group (R3) mice were administered intragastrically with TR3 (5 mg/kg). The control group and the high-fat diet model group mice were intragastrically administered with sodium carboxymethylcellulose (CMC-Na) solution. After 12 weeks of administration, all mice were fasted overnight. The blood sample was taken from the retro-orbital plexus, collected in a EP tube, and then centrifuged for 15 min (2500 rpm). The centrifuged serum (upper layer) was transferred to new EP tubes (divided into two aliquots) and stored at −20° C. for further use. […]\nas §3, with “The subsequent steps were the same as those for preparing protein samples from cells.” left out"}, "AMPK": {"tested_on": "AMPK", "assay": "AMPK level in RAW 264.7 cells by western-blot", "type": "cell-based, Murine", "conditions": "1 μM, 18-24 h treatment, FIG. 11", "procedure": "as §1, §2"}}, "data": [{"smiles": "c1ccc2c(c1)CN1CCc3c([nH]c4ccccc34)C1=N2", "note": "[TR3, 5,7,8,13-tetrahydroindolo[2′,3′:3,4]pyrido[2,1-b]quinazoline]", "values": [{"measurement": "up-regulation of ABCA1 expression after addition of si-AMPK", "setting": "ABCA1 [1]; RAW 264.7 cells pretreated with si-AMPK 24 h, then 1 μM for 24 h", "value": "inhibited by the addition of interfering RNA (si-AMPK)"}, {"measurement": "expression of ABCA1", "setting": "ABCA1 [1]; RAW 264.7 cells, 1 μM, western-blot, FIG. 11", "value": "significantly up-regulated"}, {"measurement": "activation of PPARγ", "setting": "PPARγ", "value": "simultaneously activated PPARα/γ/δ and LXRα/β to a certain extent"}, {"measurement": "inhibitory effect on NLRP3, Caspase-1 and IL-1β with Anisomycin added", "setting": "NLRP3 inflammasome", "value": "reduced"}, {"measurement": "expression of ABCA1 in the liver", "setting": "ABCA1 [2]", "value": "increased"}, {"measurement": "AMPK level", "setting": "AMPK", "value": "significantly up-regulated"}]}]}
